The record followed here is patent US20220087987A1, “A METHOD FOR TREATING SWI/SNF COMPLEX-DEFICIENT CANCERS COMPRISING GLUTATHIONE (GSH) METABOLIC PATHWAY INHIBITOR” (National Cancer Center, priority 2018, published 2022).

Each structure is given as a SMILES string. Read-outs that look alike come from different tables or passages of the source. Numbered stars: 1 amine (or outer) side, 2 acyl side, 3 side chain; on linkers, the order of the positions; unused ones are H or OH. Bridge positions count the residues as written; N and C are the ends. Square brackets hold non-standard residues; d marks the D form. Peptide text beside a SMILES is read from it. I, II: the chains in the order shown. Actinocin(9to1) = Cc1c2oc3c(C)ccc(C(=O)[*:1])c3nc-2c(C(=O)[*:2])c(N)c1=O; NMeV = CN[C@H](C(=O)O)C(C)C; Sar = CNCC(=O)O

The test system of one data set is ARID1A-WT HCT116 cells. As to the kind of experiment: Drug library screen, cell viability (CellTiter-Glo). The data set is classed as cell-based, human. As to the method:
(§1) ARID1A-WT and ARID1A-KO HCT116 cancer cells were used for screening assays. […] Cell viability was assessed after 5 days using the CellTiter-Glo Luminescent Cell Viability Assay (Promega). Luminescence was measured using an Envision Multi-label plate reader (PerkinElmer). The luminescence reading was used to determine the cell viability relative to that of cells treated with solvent (DMSO). Candidate compounds were considered if viability of ARID1A-KO cells was less than […] was more than 80%.

Another data set concerns ARID1A-KO HCT116 cells. The data set is described as above. The data set is classed as cell-based, human. As to the method: as §1
[1] abbreviates: HCT116 ARID1A-WT, 10 μM for 5 days, relative to cells treated with solvent (DMSO).
[2] abbreviates: HCT116 ARID1A-KO, 10 μM for 5 days, relative to cells treated with solvent (DMSO).

With `O=C(NC(NC(=S)Nc1ccc(F)c([N+](=O)[O-])c1)C(Cl)(Cl)Cl)C(c1ccccc1)c1ccccc1` (stereo not shown) [ATM/ATR kinase inhibitor], the “Cell viability, WT” value in the data set with ARID1A-WT HCT116 cells (setting [1]) came out at 59.07. In addition, the “Cell viability, KO” value with ARID1A-KO HCT116 cells (setting [2]) worked out at 76.77.

In the case of `Clc1ccccc1CNCC1CCC(CNCc2ccccc2Cl)CC1` (stereo not shown) [AY 9944], the “Cell viability, WT” value with ARID1A-WT HCT116 cells (setting [1]) is on record as 31.41. Besides, the “Cell viability, KO” value with ARID1A-KO HCT116 cells (setting [2]) is listed as 50.15.

`Cc1cn([C@H]2C[C@H](N=[N+]=[N-])[C@@H](CO)O2)c(=O)[nH]c1=O` [AZT]: the “Cell viability, WT” value in the data set on ARID1A-WT HCT116 cells (setting [1]) was 71.38. In addition, the “Cell viability, KO” value with ARID1A-KO HCT116 cells (setting [2]) worked out at 60.27.

Consider `Cc1c2oc3c(C)ccc(C(=O)N[C@@H]4C(=O)N[C@H](C(C)C)C(=O)N5CCC[C@H]5C(=O)N(C)CC(=O)N(C)[C@@H](C(C)C)C(=O)O[C@@H]4C)c3nc-2c(C(=O)N[C@@H]2C(=O)N[C@H](C(C)C)C(=O)N3CCC[C@H]3C(=O)N(C)CC(=O)N(C)[C@@H](C(C)C)C(=O)O[C@@H]2C)c(N)c1=O` [Actinomycin D] (I: T[dV]P[Sar][NMeV] / II: T[dV]P[Sar][NMeV]; ester I:1-I:C, II:1-II:C; linker I:N-II:N via Actinocin(9to1)), for which, in the data set with ARID1A-WT HCT116 cells (setting [1]), the “Cell viability, WT” value is 6.951. The “Cell viability, KO” value in the data set on ARID1A-KO HCT116 cells (setting [2]) worked out at 6.531.

In the case of `N#CCCc1ccc2c(c1)-c1[nH]c3ccc([N+](=O)[O-])cc3c1CC(=O)N2` [Alsterpaullone, 2-cyanoethyl], in the data set with ARID1A-WT HCT116 cells (setting [1]), the “Cell viability, WT” value was determined as 6.82. In the data set with ARID1A-KO HCT116 cells (setting [2]), the “Cell viability, KO” value is 14.55.

With `CCCCCCCCCCCCCCCc1cccc(O)c1C(=O)O` [Anacardic acid], the “Cell viability, WT” value with ARID1A-WT HCT116 cells (setting [1]) stood at 102.71. The “Cell viability, KO” value in the data set with ARID1A-KO HCT116 cells (setting [2]) was 112.6464.

Turning to `COc1cc2ncnc(Nc3ccc(NC(=O)c4ccccc4)cc3)c2cc1OC` [Aurora kinase inhibitor II], in the data set with ARID1A-WT HCT116 cells (setting [1]), the “Cell viability, WT” value came to 53.336. Also, the “Cell viability, KO” value in the data set with ARID1A-KO HCT116 cells (setting [2]) was 60.46.

As to `Nc1ncn([C@@H]2O[C@H](CO)[C@@H](O)[C@H]2O)c(=O)n1` [Azacytidine], in the data set on ARID1A-WT HCT116 cells (setting [1]), the “Cell viability, WT” value was determined as 86.54. For the same compound, in the data set on ARID1A-KO HCT116 cells (setting [2]), the “Cell viability, KO” value came to 43.39.

Turning to `CC(C)(c1ccc(OCC2CO2)cc1)c1ccc(OCC2CO2)cc1` (stereo not shown) [BADGE], the “Cell viability, WT” value in the data set on ARID1A-WT HCT116 cells (setting [1]) is listed as 93.59. The “Cell viability, KO” value with ARID1A-KO HCT116 cells (setting [2]) amounted to 107.888.

In the case of `CC(C)C(C(=O)O)N1C(=O)/C(=C\c2ccc(Br)cc2)SC1=S` (stereo not shown) [BH3I-1], the “Cell viability, WT” value in the data set on ARID1A-WT HCT116 cells (setting [1]) came out at 99.91. The “Cell viability, KO” value with ARID1A-KO HCT116 cells (setting [2]) is recorded as 109.7951.

As to `O=C1Nc2cc(Br)ccc2/C1=C1/Nc2ccccc2/C1=N\O` [BIO], the “Cell viability, WT” value in the data set on ARID1A-WT HCT116 cells (setting [1]) was determined as 87.19. Further, the “Cell viability, KO” value in the data set with ARID1A-KO HCT116 cells (setting [2]) amounted to 107.4068.

As to `CO/C1=C\C(C)=C\[C@@H](C)[C@@H](O)[C@@H](C)C/C(C)=C/C=C/[C@H](OC)[C@@H]([C@@H](C)[C@@H](O)[C@H](C)[C@@]2(O)C[C@@H](O)[C@H](C)[C@@H](C(C)C)O2)OC1=O` [Bafilomycin AI], the “Cell viability, WT” value in the data set on ARID1A-WT HCT116 cells (setting [1]) turned out to be 4.059. Also, the “Cell viability, KO” value in the data set on ARID1A-KO HCT116 cells (setting [2]) is recorded as 4.345.

As to `Nc1nc(OCc2ccccc2)c2nc[nH]c2n1` [Benzylguanine], in the data set on ARID1A-WT HCT116 cells, the “Cell viability, WT” value was 88.84. The “Cell viability, KO” value in the data set on ARID1A-KO HCT116 cells worked out at 105.1044.

For `CN(C)CCCn1cc(C2=C(c3c[nH]c4ccccc34)C(=O)NC2=O)c2ccccc21.Cl` [Bisindolymaleimide I, HCl], the “Cell viability, WT” value in the data set with ARID1A-WT HCT116 cells (setting [1]) is 8.077. The “Cell viability, KO” value in the data set on ARID1A-KO HCT116 cells (setting [2]) worked out at 6.106.

As to `C=C1C(=O)OC(CCCCCCCC)C1C(=O)O` (stereo not shown) [C75], the “Cell viability, WT” value in the data set with ARID1A-WT HCT116 cells (setting [1]) was 103.4877. The “Cell viability, KO” value in the data set with ARID1A-KO HCT116 cells (setting [2]) is 93.63.

As for `CC1=NN(c2ccc(C(=O)O)cc2)C(=O)/C1=C\c1ccc(-c2cc(C)c(C)cc2[N+](=O)[O-])o1` [C646], in the data set on ARID1A-WT HCT116 cells, the “Cell viability, WT” value was 93.09. Further, in the data set with ARID1A-KO HCT116 cells, the “Cell viability, KO” value was determined as 115.173.

Regarding `CCCNC(=O)[C@H]1O[C@@H]1C(=O)N[C@H](C(=O)N1CCC[C@H]1C(=O)O)[C@@H](C)CC` [CA-074], in the data set with ARID1A-WT HCT116 cells (setting [1]), the “Cell viability, WT” value came to 107.6022. Moreover, in the data set on ARID1A-KO HCT116 cells (setting [2]), the “Cell viability, KO” value is 115.0436.

For the compound `Cc1nc(N)sc1-c1ccnc(Nc2cccc([N+](=O)[O-])c2)n1` [Cdk 2/9 inhibitor], the “Cell viability, WT” value with ARID1A-WT HCT116 cells (setting [1]) was determined as 6.309. The “Cell viability, KO” value in the data set on ARID1A-KO HCT116 cells (setting [2]) is reported as 14.26.

`Nc1nc(Nc2ccc(S(N)(=O)=O)cc2)nn1C(=S)Nc1c(F)cccc1F` [Cdk½ inhibitor III]: the “Cell viability, WT” value in the data set with ARID1A-WT HCT116 cells (setting [1]) stood at 8.59. In the data set with ARID1A-KO HCT116 cells (setting [2]), the “Cell viability, KO” value is 18.12.

With `NC(=O)c1ccc2nc(-c3ccc(Oc4ccc(Cl)cc4)cc3)[nH]c2c1` [Chk2 inhibitor II], the “Cell viability, WT” value in the data set with ARID1A-WT HCT116 cells (setting [1]) is 104.0524. Moreover, the “Cell viability, KO” value in the data set on ARID1A-KO HCT116 cells (setting [2]) stood at 139.2543.

In the case of `CC(C)(O)/C=C/C(=O)[C@](C)(O)[C@H]1[C@H](O)C[C@@]2(C)[C@@H]3CC=C4[C@@H](C=C(O)C(=O)C4(C)C)[C@]3(C)C(=O)C[C@]12C` [Cucurbitacin I], the “Cell viability, WT” value in the data set with ARID1A-WT HCT116 cells (setting [1]) was found to be 13.95. Further, in the data set with ARID1A-KO HCT116 cells (setting [2]), the “Cell viability, KO” value was 15.25.

Take `C=C1[C@@H](C)[C@H]2[C@H](Cc3ccccc3)NC(=O)[C@]23[C@H](OC(C)=O)/C=C/[C@@](C)(O)C(=O)[C@@H](C)C/C=C/[C@H]3[C@@H]1O` [Cytochalasin D]: the “Cell viability, WT” value in the data set with ARID1A-WT HCT116 cells (setting [1]) is listed as 63. The “Cell viability, KO” value with ARID1A-KO HCT116 cells (setting [2]) worked out at 59.86.

Take `NC(=O)c1ccc(-c2nc(-c3ccc4c(c3)OCCO4)c(-c3ccccn3)[nH]2)cc1` [D4476]: the “Cell viability, WT” value in the data set with ARID1A-WT HCT116 cells was determined as 93.4. Also, the “Cell viability, KO” value in the data set with ARID1A-KO HCT116 cells is recorded as 124.271.
